# Laboratory results published in patent publication US10947129B2, “Fluid disinfection with ultraviolet radiation and a chemical disinfectant” (Trojan Technologies, priority 2015, dated 2021).
# Entries after “also recorded” stand apart in the source; their conditions may differ.
# Tests used:
# E. coli [1] = assay: Combined UV and PAA disinfection tests on WWTP secondary effluent; type: cell-based, Escherichia coli
# Description: For the UV+PAA experiment, effluent was first irradiated to UV fluences of 10, 15 or 20 mJ/cm^2, then dosed with PAA as described above. For the PAA+UV experiment, effluent was first dosed with PAA as described above. After set durations, portions of the sample were removed, PAA quenched with sodium bisulfite, and then subjected to UV fluences of 10, 15 or 20 mJ/cm^2. For the simultaneous PAA+UV experiment, two different scenarios were investigated. The first involved dosing PAA at the onset of UV irradiation, irradiating for a set duration, and then removing the sample from UV exposure and continuing to stir until a desired PAA contact time was achieved. The second scenario involved first dosing PAA and allowing it to stir for a period prior to subjecting it to UV irradiation.
# Three distinct scenarios were performed with respect to testing the combined UV and PAA disinfection processes: UV prior to PAA (UV→PAA), PAA prior to UV (PAA→UV), simultaneous UV and PAA (UV+PAA). For the UV→PAA tests, UV fluences of 10, 15, and 20 mJ/cm^2 were applied prior to PAA addition, and PAA CTs ranged from 5-25 mg·min/L. Each of FIGS. 14-26 illustrates the results for viable E. coli as a function of PAA CT exposure with different levels of UV fluence applied, prior to PAA treatment.
# [2] = PAA demand/decay in WWTP secondary effluent (Equation 1 fit); type: physicochemical; settings: for Decay (k, 1/min) / Demand (D, mg/L): PAA only disinfection
# Experimental: (§1) In this study, secondary effluent samples were collected and treated with PAA to achieve residual concentration*contact time (CTs) of 2.5-50 mg·min/L. PAA tests were conducted in clean glass beakers (500 or 2000 mL), and mixed continuously using a magnetic stirrer (600 rpm). Measurements of PAA residuals were collected over time, and E. coli samples were collected following PAA quenching using sodium bisulfite. The four samples collected between September 22-24 were each treated with PAA (CO=5.0 mg/L) in order to estimate the demand/decay for each sample. […] The demand/decay kinetic parameters were recalculated using the experimental results from each inactivation experiment.
# PAA residuals were fitted to a demand/decay curve using Equation 1. The PAA CT (mg·min/L) was determined by integrating the area under the demand/decay curve and is calculated using Equation 2. C=(C0−D)e^−kt [Equation 1] where, • C is the concentration of PAA (mg/L) at time t (min) • C0 is initial concentration of PAA (mg/L) • D is the instantaneous demand of PAA (mg/L) • k is the decay rate constant of PAA (1/min) • t is the contact time (min)
# total coliform = settings: cited from earlier work
# E. coli [3] = assay: E. coli inactivation by PAA alone in WWTP secondary effluent (bench test); type: cell-based, Escherichia coli
# Experimental: as §1
# [formula] where, • CT is the integral PAA dose (concentration*contact time); mg·min/L (Santoro et al., 2015) PAA and UV Disinfection Kinetics
# To develop an disinfection kinetic model, the concentration of viable for E. coli can be plotted against either PAA—CT dose or UV fluence and the data fitted using the double exponential inactivation model, described in Equation 3. […]
# The E. coli inactivation kinetics by PAA was calculated for each sample by plotting the viable concentration of E. coli on a log scale (y-axis) against the PAA—CT dose (x-axis), and is shown in FIG. 11. […]
# [4] = low UV fluence (13 mJ/cm^2), PAA added before or after UV irradiation; cited from earlier work
smiles,measurement,setting,value
"CC(=O)OO [PAA, peracetic acid]",attainment of E. coli disinfection targets,"E. coli [1]; PAA prior to UV (PAA→UV), PAA CT 10-23 mg·min/L, UV 10, 15, 20 mJ/cm^2",did NOT always result in the geometric mean or maximum disinfection targets being met
same,attainment of E. coli disinfection targets,"E. coli [1]; UV prior to PAA (UV→PAA), UV 10, 15, 20 mJ/cm^2, PAA CT 5-25 mg·min/L",both the maximum and geometric mean disinfection targets being met for at least one combination of fluence and CT; also recorded: consistently met disinfection targets
same,attainment of E. coli disinfection targets,"E. coli [1]; simultaneous UV+PAA, UV 10, 15, 20 mJ/cm^2, PAA CT 15-30 mg·min/L",could not achieve the geomean or maximum disinfection targets
same,"Decay (k, 1/min)",[2]; sample Sept. 22 - AM,0.063 min⁻¹
same,"Demand (D, mg/L)",[2]; sample Sept. 22 - AM,3.58 mg/L
same,"Decay (k, 1/min)",[2]; sample Sept. 22 - PM,0.057 min⁻¹
same,"Demand (D, mg/L)",[2]; sample Sept. 22 - PM,2.60 mg/L
same,"Decay (k, 1/min)",[2]; sample Sept. 24 - AM,0.056 min⁻¹
same,"Demand (D, mg/L)",[2]; sample Sept. 24 - AM,3.50 mg/L
same,"Decay (k, 1/min)",[2]; sample Sept. 24 - PM,0.058 min⁻¹
same,"Demand (D, mg/L)",[2]; sample Sept. 24 - PM,2.91 mg/L
same,decay rates,[2]; all samples,ca. 0.060 l/min
same,PAA demand,[2]; samples collected in the afternoon,ca. 2.75 mg/L
same,PAA demand,[2]; samples collected in the morning,ca. 3.5 mg/L
same,inactivation of total coliform,total coliform; PAA 2 mg/L applied immediately before UV fluence of 192 mJ/cm^2,over 4 log
same,attainment of target disinfection levels,"total coliform; PAA concentration between 2 and 8 mg/L, alone",unable to reach the target disinfection levels
same,PAA CT dose required to meet disinfection target,"E. coli [3]; target 63 MPN/100 mL (half the 30-day geomean permit), model from all data",49.2 mg·min/L
same,PAA CT dose required to meet disinfection target,"E. coli [3]; target 244 MPN/100 mL (half the daily maximum permit), model from poorest inactivation data",36.0 mg·min/L
same,synergistic benefit of PAA combined with UV,[4],no synergistic benefit observed
